Paper PMC9114338 (Scientific Reports, 2022)
Read-outs that look alike come from different tables or passages of the source.

Key:
[1] = Subdermal TAF implant pharmacokinetic mouse study; assay type: in vivo; settings: low- and high-releasing implants
Text: Two study groups are described here: one low-releasing and one high-releasing implant group. Animals (N = 3 per implant group) were sacrificed at the following timepoints: Day 3, 7, 14, 21, and 28 (15 mice total per implant group).

[2] = MALDI imaging mass spectrometry of dermal tissues adjacent to the implant; assay type: in vivo, C57BL/6 J mice; settings: for Detection by MALDI-IMS in dermal tissue samples during implant TAF delivery: all medicated specimens; for Spatial distribution in dermal tissue sections (MALDI-IMS): high-releasing (0.58 mg d^-1) implants, D3–D28; for MALDI-IMS signal and localization with implant in situ: low-releasing (0.23 mg d^-1) implants, Day 14, 100 µm resolution
Experimental: The used implants, the surrounding capsule, and the encasing dermal tissue were removed as a block in accordance with ISO 10993-6 guidelines, processed and stored, as described elsewhere. Briefly, the capsule was cut longitudinally and rolled open, taking care not to disrupt the architecture of the tissue or to damage the used implant. A portion of the tissue specimen was placed into 4% paraformaldehyde solution (phosphate-buffered at pH 7.2), and stored at 4 °C, for histopathology and two other portions were flash-frozen in liquid nitrogen for drug concentration analysis as well as for drug spatial distribution analysis by MALDI-IMS (vide infra).
Frozen mouse tissue specimens were shipped to Vanderbilt University on dry ice and stored at − 80 °C prior to use. Tissues were removed from the − 80 °C freezer and placed in a − 20 °C cryostat (CM 1900, Leica Biosystems, Buffalo Grove, IL) and sectioned. Tissue samples that had been prepared via removal of the used implant were affixed to the cryostat chuck with optimal cutting temperature (OCT) polymer and were cut on the cryostat into 12 µm thick sections for imaging mass spectrometry and H&E staining.
Tissue samples that still contained the implant in place were embedded in OCT prior to sectioning. In order to minimize the artifactual signal from the TAF powder after sectioning (the act of the cryostat blade cutting through an intact implant distributed residual TAF powder that still remained in the used implant onto the surrounding tissue section), house vacuum was used to remove visible TAF powder, followed by lightly running nitrogen gas over the plate to remove any additional loose powder from the slide.
The tissue sections were thaw-mounted onto indium-tin oxide coated glass slides for imaging (Delta Technologies, Ltd, Loveland, CO). The tissue sections were left to dry for at least 15 min in a desktop vacuum desiccator prior to matrix application. […] For 9AA, four passes were applied at 85 °C in a crisscross pattern, with a 700 mm min^-1 stage velocity, 2 mm track spacing, and 0.15 mL min^-1 flow rate. For DHB the same method was used, except eight passes were applied and the stage velocity was 1300 mm min^-1.
Flash-frozen dermal tissue samples collected adjacent to the TAF implants and sectioned were analyzed with a linear ion trap mass spectrometer equipped with a MALDI source and a nitrogen laser (LTQ XL, Thermo Scientific, Waltham, MA). The structures of compounds of interest are shown in Scheme 1. Targeted MS/MS methods were optimized for each compound using authentic samples as standards, with the final parameters shown in Appendix A under Supplementary Information. Pseudo-selected reaction monitoring mode was used for imaging by isolating precursor ions with a 1 Da window, fragmenting them, and acquiring full product ion mass spectra at each pixel. TFV, TFV-MP, and TFV-DP were analyzed in negative ion mode, while TAF, Metabolite X, and Metabolite Y were analyzed in positive ion mode. In most cases, after imaging, the matrix was removed and the tissue section that had been imaged was H&E stained for better image registration with tissue morphology. Standard images were acquired at either 50 or 100 µm spatial resolution. Reconstructed ion images were generated in ImageQuest software (Thermo Scientific, Waltham, MA) by plotting the intensity of the diagnostic fragment ion or ions as a function of location across the tissue surface.

[3] = Subcutaneous TAF injection pharmacokinetic mouse study; assay type: in vivo, C57BL/6 J mice; settings: C57BL/6 J, PBMCs, 0.5 mg, read-out: PBMC TFV-DP t1/2 (converted)
Experimental: C57BL/6 J Mice (12 groups of 4 animals each; 48 mice total) were administered the study product (0.5 mg dose, 0.1 mL) described above by subcutaneous (SQ) injection. Animals (N = 4) were sacrificed at the following timepoints: Day 1 (1, 3, 6, 12, 24 h), Day 2, 4, 6, 8, 10, 12, and 14. Blood was collected by exsanguination and processed as described above.
(§1) PBMC results were normalized to the number of cells and reported as fmol/10^6 cells or as intracellular concentration based on cell volume, in nM. Tissue results were normalized to sample mass and reported as ng mg^-1 or fmol mg^-1.

[4] = design: method as in PMID 23600365; settings: healthy individuals; cited from earlier work
[5] = tested on: HIV-1; settings: cited from earlier work
[6] = Intravenous TAF pharmacokinetic mouse study (plasma, PBMC, tissue homogenate); assay type: in vivo, C57BL/6 J mice; settings: for half-life: C57BL/6 J, mouse, iv, 0.5 mg
Experimental: C57BL/6 J Mice (9 groups of 4 animals each; 36 mice total) were administered the study product (0.5 mg dose, 0.1 mL) by intravenous (IV) injection. Animals (N = 4) were sacrificed at the following timepoints: Day 1 (1, 3, 6, 12, 24 h), Day 2, 4, 8, and 14. Blood was collected by exsanguination along with select tissue specimens (vide infra).
The isolation of plasma and PBMCs from blood samples was carried out in a laminar flow hood using aseptic techniques, and the entire process was completed in under 45 min to minimize analyte metabolism. Blood was transferred into collection tubes containing sodium citrate (final concentration, 0.4% w/v), diluted using one volume equivalent of 1 × PBS solution, and mixed by inversion. The minimum final volume was 4.0 mL. Prior to the addition of blood samples, Ficoll-Paque media (MilliporeSigma, Burlington, MA, 3.2 mL) was transferred into a 12 mL LeucoSep tube (Greiner, Monroe, NC) and centrifuged at 1000 g for 20 s at room temperature, causing the media to settle just below the porous barrier. The homogenous, diluted blood-PBS mixture was transferred into the prepared LeucoSep tube and centrifuged at 1000 g for 10 min at room temperature, resulting in the formation of three layers above the porous barrier: (A) top layer, consisting of the plasma fraction; (B) middle, interface layer, containing the PBMCs; and (C) thin lower layer, just above the barrier, consisting of Ficoll-Paque media. Layer A (plasma) was transferred to empty 1.5 mL microfuge tubes in 0.5 mL aliquots, and flash-frozen in liquid nitrogen. Layer B (PBMCs) was transferred into an empty 15 mL centrifuge tube and PBS added to the 12 mL mark, followed by gentle inversion mixing. The suspension was centrifuged at 400 g for 15 min, the supernatant removed, and the pellet resuspended in PBS (10 mL) by gentle pipetting. An aliquot (10 µL) was removed from the suspension for cell counting and the remaining sample was centrifuged at 400 g for 15 min. The supernatant was removed without disturbing the cell pellet, which was treated with ice-cold 70% v/v methanol in molecular-grade water (1.0 mL). The mixture was mixed lightly by vortex agitation to lyse the cells, followed by transfer to a 2.0 mL cryovial that was flash-frozen in liquid nitrogen.
Vaginal, rectal, spleen, and thymus tissue samples were collected from sacrificed animals at Day 1 (12, 24 h), Day 4, and 8; rectal tissue samples were not collected at 12 h. The samples were transferred into pre-weighed sample tubes, weighed, and flash-frozen in liquid nitrogen.
as §1

[7] = assay type: in vivo, C57BL/6 J mice; settings: Day 28, pathologist evaluation, low and high doses
Experimental: Toxicity was evaluated by clinical observations, cage-side observations (twice daily), and body weight (weekly). Formaldehyde-fixed dermal tissue specimens (one per animal) were paraffin-embedded, sectioned, and H&E stained using established methods (JIT Labs, jit-labs.com). The slides were evaluated for microscopic findings by a certified pathologist (Vet Path Services, Inc., Mason, OH). Histopathology grades were assigned as grade 1 (minimal), grade 2 (mild), grade 3 (moderate), grade 4 (marked), or grade 5 (severe) based on an increasing extent of overall change.

[8] = Simulation of plasma TFV and PBMC TFV-DP following TAF delivery from implants; design: species or system C57BL/6 J mice; settings: dose-dependent
Experimental: All other parameters were unmodified from Table 2. Our starting hypothesis was that the difference between SQ injection and long-acting SQ delivery via implant would be strictly related to the implant release rate. Once the drug was released from the device, it was hypothesized to be transferred from the SQ pocket to body circulation via the same mechanism and governed by the same parameters as by SQ injection, and therefore the same model was employed.
Compartmental analyses were performed in Phoenix software (version 8.3, Certara, Princeton, NJ) using a published, simple, structural PK model describing the TFV kinetics. IV and SQ data were modeled simultaneously. Due to the destructive nature of the blood sampling, data were modeled using a naïve-pooled algorithm, without inter-animal variability. The resulting systemic parameters, along with the implant in vivo release rates on a per animal basis, were used to co-model (predict) concentration data in mice following during implant dosing.

[9] = tested on: OAT1; settings: in vitro studies; cited from earlier work
[10] = tested on: HIV-1
Experimental: The BLT hu-mouse model has been used extensively in efficacy studies involving HIV-1 prevention research[54]–[58]. […] The mice were challenged with HIV-1 either rectally or vaginally 6 h post dosing and monitored for infection status for 12 weeks.
The generation of BLT hu-mice was performed as described in Baum et al.[58], and the references contained therein.
Vaginal or rectal challenge with HIV-1 was performed 6 h after dosing and HIV-1 infection status was monitored by quantifying viral RNA concentration in peripheral blood (plasma) at 1, 2, 3, 6, and 12 weeks post challenge as fully described in Baum et al.[58], and the references contained therein.

[11] = tested on: OAT3; settings: in vitro studies; cited from earlier work
[12] = rapidly converts to TFV; cited from earlier work
[13] = cited from earlier work
[14] = rat, in vivo; cited from earlier work
[15] = oral TAF 6 h before rectal HIV-1 challenge
[16] = oral TAF 6 h before vaginal HIV-1 challenge

C[C@H](Cn1cnc2c(N)ncnc21)OCP(=O)(O)OP(=O)(O)OP(=O)(O)O [TFV-DP, TFV diphosphate]
Share of total TFV species present as TFV-DP, dermal tissue adjacent to TAF implants [1]: less than 1%
Detection by MALDI-IMS in dermal tissue samples during implant TAF delivery [2]: detected
Spatial distribution in dermal tissue sections (MALDI-IMS) [2]: distributed homogeneously throughout the samples
MALDI-IMS signal and localization with implant in situ [2]: weak
half-life [3]: 17 h
Intracellular (PBMC) TFV-DP half-life [4]: 48 h
TFV-DP EC90 (more conservative) ([5]; corrected for TFV-DP loss on cryopreservation): 24 to 48 fmol/10^6 cells
PBMC TFV-DP concentration associated with 90% protection ([5]; post hoc analysis of iPrEX, cryopreserved PBMCs): 16 fmol/10^6 cells
half-life ([6]; PBMCs, read-out: PBMC TFV-DP t1/2 (converted)): 41 h
Share of total TFV present as TFV-DP, vaginal tissue ([6]; IV TAF dosing): 5.1%
Median vaginal x(TFV-DP) lower than rectal, spleen, thymus ([6]; IV TAF, depending on the compartment): 4.7–6.7 fold
half-life ([6]; female, rectal tissue, read-out: Terminal half-life in rectal tissue (NCA) (converted)): 26.4 h
half-life ([6]; female, spleen, read-out: Terminal half-life in spleen (NCA) (converted)): 23.3 h
half-life ([6]; female, thymus, read-out: Terminal half-life in thymus (NCA) (converted)): 23.3 h
half-life ([6]; female, vaginal tissue, read-out: Terminal half-life in vaginal tissue (NCA) (converted)): 31.2 h
Duration of TFV-DP concentrations in tissues ([6]; single bolus IV TAF administration): > 8 days
TFV-DP mole fraction x(TFV-DP), vaginal tissue, median (IQR) ([6]; tissue homogenate, IV TAF dosing): 0.051 (0.022–0.080)

C[C@H](Cn1cnc2c(N)ncnc21)OC[P@@](=O)(O)N[C@@H](C)C(=O)O [Metabolite X]
Detection by MALDI-IMS in dermal tissue samples during implant TAF delivery [2]: detected
Spatial distribution in dermal tissue sections (MALDI-IMS) [2]: localized close to the implant
MALDI-IMS signal and localization with implant in situ [2]: localized close to the implant

C[C@H](Cn1cnc2c(N)ncnc21)OCP(=O)(O)OP(=O)(O)O [TFV-MP]
Detection by MALDI-IMS in dermal tissue samples during implant TAF delivery [2]: detected
Spatial distribution in dermal tissue sections (MALDI-IMS) [2]: distributed homogeneously throughout the samples
MALDI-IMS signal and localization with implant in situ [2]: weak

CC(C)OC(=O)[C@H](C)N[P@](=O)(O)CO[C@H](C)Cn1cnc2c(N)ncnc21 [Metabolite Y]
Detection by MALDI-IMS in dermal tissue samples during implant TAF delivery [2]: detected
Spatial distribution in dermal tissue sections (MALDI-IMS) [2]: localized close to the implant
MALDI-IMS signal and localization with implant in situ [2]: localized close to the implant

CC(C)OC(=O)[C@H](C)N[P@](=O)(CO[C@H](C)Cn1cnc2c(N)ncnc21)Oc1ccccc1 [TAF, tenofovir alafenamide]
Effect of TAF dose on microscopic appearance of tissues [7]: no effects
Detection by MALDI-IMS in dermal tissue samples during implant TAF delivery [2]: detected
Spatial distribution in dermal tissue sections (MALDI-IMS) [2]: localized close to the implant
MALDI-IMS signal and localization with implant in situ [2]: most abundant signals
Exposure scaling (apparent bioavailability) from subdermal implants vs SQ or IV injection [8]: 4–5 ×
Substrate for renal uptake transporter OAT1 [9]: not believed to be a substrate
Protection from rectal HIV-1 acquisition ([10]; oral TAF): fully protective
Protection from vaginal HIV-1 acquisition ([10]; oral TAF): fully protective
ED50 [10, 15]: 1.27 µmol
ED90 [10, 15]: 1.62 µmol
ED50 [10, 16]: 1.17 µmol
ED90 [10, 16]: 2.15 µmol
m-value ± SEM (median-effect model) ([10]; rectal): 9.18 ± 1.94
m-value ± SEM (median-effect model) ([10]; vaginal): 3.60 ± 0.22
Impurities formed during in vivo implant use (HPLC of retrieved implants): less than 1%
TAF peak area of total peak area (TAF and decomposition products) in retrieved implants (HPLC, irrespective of the implant group): > 98%
Substrate for renal uptake transporter OAT3 [11]: not believed to be a substrate
Stability in mouse plasma [12]: highly unstable
Efflux transport in the intestine [13]: vulnerable to efflux transport

O=C(O)C[C@@H]1Cc2ccc(OCCCNc3ccccn3)cc2Cc2ccccc21 [SB-265123]
Apparent oral F [14]: exceeding 100%
